From US11155668B2, “Contact-killing, QAC functionalized thermoplastic polyurethane for catheter applications” (THE UNIVERSITY OF AKRON, priority 2017, dated 2021) come the findings set out here.

In assay [1] the test system is E. coli. Kind of assay: Antimicrobial testing using ISO22196 protocol on compression molded samples. The note with it: surface functionalized (covalently attached QAC) sample; FIG. 7B. In kind it is cell-based.
In assay [2] the test system is MRSA. In words: Contact-killing assay (adapted from ISO 22196) on allyl-TPU blade-coated samples modified with Qx-SH. The note with it: n = 1. In kind it is cell-based. As for the experimental part: (§1) To functionalize the allyl-TPU blade-coated samples with Qx-SH reagents, thiol-ene reactions were performed using the same procedure described for rhodamine-SH. Briefly, blade-coated films of allyl-TPU (250 μm thick, 2.0 cm diameter, ca. 110 mg, 20 μmol allyl) were submerged in 2 mL of an Ar purged (30 min) aqueous solution containing Qx-SH (10.0 mM) and LAP (5.0 mM), and allowed to pre-soak for 30 min under Ar. UV-treated samples were irradiated for 30 min (λ=365 nm, I=1.2 mW·cm^−2) while phys. ads. samples were kept in the absence of UV light for 30 min to control for any antimicrobial activity that is contributed by non-covalently attached QAC. Following treatment, the dye/photoinitiator solutions were drawn up and discarded, and the samples were rinsed with 5 mL of DI water (3×) then submerged in 5 mL of DI water. The samples were further rinsed with 10% EtOH (3×) and soaked in 10% EtOH for 15 min (3×), rinsing with 10% EtOH in between each soak.
(§2) For antimicrobial testing, blade-coated samples and catheter tubing of allyl-TPU were sterilized by EtO sterilization using an Anprolene benchtop sterilizer (Anderson Products, Inc., Haw River, N.C.) following the manufacturer's protocol to deliver approximately 0.5 cc·L^−1 of EtO gas over a 12 h sterilization cycle at 35% humidity and room temperature, followed by a 48 h purge under vacuum. The bacterial strains used in this study included Staphylococcus epidermidis (ATCC 12228), Staphylococcus aureus (25923), Escherichia coli (ATCC 25922), Pseudomonas aeruginosa (ATCC 27853), Enterococcus faecalis (ATCC 29212), and methicillin-resistant Staphylococcus aureus (MRSA) (ATCC BAA-41).
(§3) The contact-killing assay was performed on physically adsorbed (phys. ads.), and UV-treated blade-coated samples modified with a series of Qx-SH reagents using a method adapted from ISO 22196. See, International Organization for Standardization. Measurement of antibacterial activity on plastics and other non porous surfaces (ISO 22196:2011), the disclosure of which is incorporated herein by reference in its entirety. Briefly, the samples were inoculated with same day cultures of select bacteria (e.g. E. coli, S. epidermidis) in dilute nutrient media (0.2% tryptic soy broth (TSB) in 1× phosphate buffered saline (PBS)) at approximately 150 colony-forming units (CFU)·mm^−2. Generally, 35 uL of 8.5×10^5 CFU/mL cultures were dispersed across the surface of the sample using sterile polypropylene cover films (area=198 mm^2). Inoculated samples were incubated in a humidified room air incubator (36° C., ca. 80% rel. humidity) for 20 h. Following incubation, surviving cells were recovered from the samples using vigorous agitation (i.e. vortexing for 20 s in PBS). Surviving cells were enumerated via 10-fold series dilution and plating 100 μL onto tryptic soy agar (TSA), incubating overnight and then plate counting CFU. The mean CFU recovered per sample (CFU/sample) were calculated by accounting for dilutions. Internal controls samples of polypropylene and chlorhexidine treated with polypropylene were included in the assay.

The test system of assay [3] is E. coli. Described as above. In kind it is cell-based, Escherichia coli (ATCC 25922). The note with it: for Mean CFU/Sample Recovered, E. coli: n = 2. On the procedure:
as §1, §2
as §3, with “Inoculated samples were incubated in a humidified room air incubator (36° C., ca. 80% rel. humidity) for 20 h.” left out

For assay [4], the system named is S. epidermidis. Described as above. The format is cell-based, Staphylococcus epidermidis (ATCC 12228). To be noted: n = 2. On the procedure:
as §1, §2, §3

The test system of assay [5] is P. aeruginosa. The assay is described as above. In kind it is cell-based, Pseudomonas aeruginosa (ATCC 27853). The note with it: for Mean CFU/Sample Recovered, P. aeruginosa: n = 1. As for the experimental part: as §1, §2, §3
Assay [6] has as its system E. faecalis. Described as above. The format is cell-based, Enterococcus faecalis (ATCC 29212). To be noted: n = 1. As for the experimental part:
as §1, §2, §3

Where [7] appears, read: positive control (chlorhexidine treated polypropylene).
Where [8] appears, read: UV-treated samples, negative control polypropylene 1.51 × 10^5.
[9] abbreviates: phys. ads. samples, negative control polypropylene 1.51 × 10^5.
Where [10] appears, read: UV-treated samples, 24 h contact-killing assay.
Setting [11] is: UV-treated samples, negative control polypropylene 2.04 (±0.06) × 10^6.
Setting [12] is: phys. ads. samples, negative control polypropylene 2.04 (±0.06) × 10^6.
Where [13] appears, read: UV-treated samples, negative control polypropylene 0.93 (±0.03) × 10^5.
Where [14] appears, read: phys. ads. samples, negative control polypropylene 0.93 (±0.03) × 10^5.
Setting [15] is: UV-treated samples, negative control polypropylene 7.94 × 10^6.
Where [16] appears, read: phys. ads. samples, negative control polypropylene 7.94 × 10^6.
Setting [17] is: UV-treated samples, negative control polypropylene 1.70 × 10^5.
Where [18] appears, read: phys. ads. samples, negative control polypropylene 1.70 × 10^5.

For the molecule `CCCCCCCCCCCCCC[N+](C)(C)CCCCCCCCOC(=O)CCSSCCC(=O)OCCCCCCCC[N+](C)(C)CCCCCCCCCCCCCC.[Cl-].[Cl-]` [8-Q14-S-S], in assay [1], the “log reduction, activity against E. coli” value is recorded as 6 log.

In the case of `[H]/N=C(\N/C(=N/[H])NCCCCCCNC(=N)NC(=N)Nc1ccc(Cl)cc1)Nc1ccc(Cl)cc1` [Chlorhexidine, reference compound], the “Mean CFU/Sample Recovered, MRSA” value in assay [2] (setting [7]) was 0.00 CFU/Sample. Moreover, the “Mean CFU/Sample Recovered, E. coli” value in assay [3] (setting [7]) was 0.00 ± 0.00 CFU/Sample. In addition, the “Mean CFU/Sample Recovered, S.epidermidis” value in assay [4] (setting [7]) is 0.00 ± 0.00 CFU/Sample. Further, the “Mean CFU/Sample Recovered, P. aeruginosa” value in assay [5] (setting [7]) is recorded as 0.00 CFU/Sample. Also, the “Mean CFU/Sample Recovered, E. faecalis” value in assay [6] (setting [7]) is recorded as 0.00 CFU/Sample.

As to `CCCCCCCCCCCC[N+](C)(C)CCCCCCCCOC(=O)CCS.[Cl-]` [Q12-SH], the “Mean CFU/Sample Recovered, MRSA” value in assay [2] (setting [8]) and in assay [2] (setting [9]) was 0.00 CFU/Sample each time. Also, in assay [3] (setting [10]), the “log reduction in E. coli compared to the negative control” value is reported as 6 log. Moreover, the “reduction in E. coli compared to the negative control” value in assay [3] (setting [10]) is recorded as 99.9999%. Besides, the results for the “Mean CFU/Sample Recovered, E. coli” value in assay [3] (setting [11]) and in assay [3] (setting [12]) were 0.00 ± 0.00 CFU/Sample and 1.17 (±0.41) × 10^3 CFU/Sample, respectively. The “Mean CFU/Sample Recovered, S.epidermidis” value in assay [4] (setting [13]) and in assay [4] (setting [14]) was 0.00 ± 0.00 CFU/Sample in each case. The “reduction of P. aeruginosa” value in assay [5] (UV-treated samples) is on record as “complete reduction”. Besides, the “Mean CFU/Sample Recovered, P. aeruginosa” value was 0.00 CFU/Sample in assay [5] (setting [15]) and 7.24 × 10^5 CFU/Sample in assay [5] (setting [16]). The “Mean CFU/Sample Recovered, E. faecalis” value in assay [6] (setting [17]) and in assay [6] (setting [18]) was 0.00 CFU/Sample each time.

For the molecule `CCCCCCCCCCCCCC[N+](C)(C)CCCCCCCCOC(=O)CCS.[Cl-]` [Q14-SH], the “Mean CFU/Sample Recovered, MRSA” value was 1.00 × 10^2 CFU/Sample in assay [2] (setting [8]) and 0.00 CFU/Sample in assay [2] (setting [9]). Further, the “Mean CFU/Sample Recovered, E. coli” value is given as 6.61 (±0.01) × 10^5 CFU/Sample in assay [3] (setting [11]) and 6.03 (±0.03) × 10^5 CFU/Sample in assay [3] (setting [12]). In addition, the “Mean CFU/Sample Recovered, S.epidermidis” value in assay [4] (setting [13]) and in assay [4] (setting [14]) was 0.00 ± 0.00 CFU/Sample throughout. Moreover, the “Mean CFU/Sample Recovered, P. aeruginosa” value is on record as 5.25 × 10^6 CFU/Sample in assay [5] (setting [15]) and 4.79 × 10^6 CFU/Sample in assay [5] (setting [16]). Further, the “Mean CFU/Sample Recovered, E. faecalis” value in assay [6] (setting [17]) and in assay [6] (setting [18]) was 0.00 CFU/Sample throughout.
